Residues, ends and D or L forms follow the SMILES beside them. *: point of attachment. Cbz = O=C(OCc1ccccc1)*
Assays:
[1] = tested on: HUVECs stimulated with an inflammatory cytokine mixture of TNF-α, IL-1β, and IFN-γ (IL-8, IL-6, MCP-1 upregulation); test: Multiparametric HUVEC inflammation assay, secreted cytokines quantified by microfluidic flowchip ELISA; type: cell-based, human; conditions: for HUVEC inflammation response as shown by upregulation of IL-8, IL-6, and MCP-1: HUVECs stimulated with TNF-α, IL-1β, IFN-γ mixture for 20 hours at 37° C., concentration dependent effect of compound; for IL-8 expression: HUVECs, compounds added 1 hour prior to inflammatory cytokine mixture, 20 hours at 37° C.
Source text: We present results from a multiparametric primary human cell-based assay that uses immunoassays for secreted cytokines to evaluate the effect of different mediators on inflammatory response. Expression of the inflammation markers from primary human umbilical vein endothelial cells (HUVEC) stimulated with inflammation cytokines (TNF-α, IFN-γ, and IL-1β) was quantified by microfluidic-based ELISAs.
The Capture and Primary antibodies are specific to each immunoassay and matched antibody pairs for the MCP-1, IL-8, and IL-6 assays were obtained from a commercial source (Biolegend, San Diego, CA). The buffers and Stop Solution are common to all three assays and were made using materials obtained from Sigma-Aldrich. The SA-HRP (Becton Dickenson, San Diego, CA) and Substrate (Abcam, Cambridge, MA) were also common to each assay. The Capture Ab's were used at a concentration of 10 μg/ml and made by diluting stock Ab in a Coating Buffer solution containing phosphate buffered saline (PBS). The Primary Ab's were used at a concentration of 1 μg/ml and made by diluting stock Ab in an Assay Buffer solution containing PBS, bovine serum albumin (BSA), and Tween20. The Blocking Buffer consisted of BSA diluted in PBS. The SA-HRP was also diluted in Assay Buffer and used at a concentration of 200 ng/ml. The Substrate solution was used as provided.

[2] = tested on: THP-1 cells stimulated with PMA and LPS (IL-8, IL-1β, TNFα secretion); test: THP-1 cell cytokine secretion assay, microfluidic flowchip ELISA; type: cell-based, human; conditions: for THP-1 cellular inflammation response as shown by upregulation of IL-8: THP-1 cells stimulated with PMA and LPS for 20 hours at 37° C., concentration dependent effect of compound; for cytokine expression: THP-1 cells treated with compound prior to PMA and LPS activation, cytokine secretion quantified
Procedure: THP-1 cells were stimulated with PMA and LPS for 48 hours. […] To evaluate anti-inflammatory compounds, cells were treated with the kinase inhibitors SB202190 and PDTC, and the antibiotic moxifloxacin prior to activation. Then, inhibition of the inflammation responses by those anti-inflammatory compounds was measured by quantifying cytokine secretion.
A microfluidic flowchip was designed containing multiple reservoirs and nodes that accommodate the reagents required to perform an ELISA assay. The assay channel (from Well 3 to Well 9) has a cross-section of 50 μm by 300 μm and length of 25 mm while the other transfer channels have cross-sections of 50 μm by 50 μm. […] The flowchip was made out of COC using injection molding and the bottom surface was sealed with a COC film. Each reservoir has a capacity of ˜30 μl and was filled with 20 μl of the appropriate assay reagent. Assays were performed using a single protocol for all reagents as shown in FIG. 22 carried out in the following order: Capture Antibody (W3), Blocking Buffer (W2), Sample (W1), Primary Antibody (W4), Avidin-HRP (W5), Wash Buffer (Wash), Substrate (W7), and Stop Solution (W6).
The Capture and Primary antibodies are specific to each immunoassay and matched antibody pairs for the IL-8, IL-β, and TNFα assays were obtained from a commercial source (Biolegend, San Diego, CA). The buffers and Stop Solution are common to all three assays and were made using materials obtained from Sigma-Aldrich. The Avidin-HRP (Biolegend, San Diego, CA) and Substrate (Abcam, Cambridge, MA) were also common to each assay. The Capture Ab's were used at a concentration of 10 μg/ml and made by diluting stock Ab in a Coating Buffer solution containing phosphate buffered saline (PBS). The Primary Ab's were used at a concentration of 1 μg/ml and made by diluting stock Ab in an Assay Buffer solution containing PBS, bovine serum albumin (BSA), and Tween20. The Blocking Buffer consisted of BSA diluted in PBS. The Avidin-HRP was also diluted in Assay Buffer and used at a concentration of 200 ng/ml. The Substrate solution was used as provided.
Each fluid transfer step, from a source well to a destination well, followed a fluid transfer rule that included a HP portion to move the majority of fluid through a given channel followed by a longer LP portion to empty the source well without emptying the channel as described previously. The HP portion typically was between 5 and 20 sec while the LP portion typically was between 30 and 300 sec. Incubation in the assay channel was done using a different fluid transfer rule that included successive short HP transfers followed by a delay between transfers to allow interaction of the reagents with the assay channel walls. […]

N#CC(C#N)=Cc1ccc([N+](=O)[O-])c(O)c1 [AG-126]
HUVEC inflammation response as shown by upregulation of IL-8, IL-6, and MCP-1 [1]: clearly diminished
IL-8 expression [1]: reduced at similar concentrations

CC(C)C[C@@H](C=O)NC(=O)[C@H](CC(C)C)NC(=O)[C@H](CC(C)C)NC(=O)OCc1ccccc1 [MG-132] (Cbz-Leu-Leu-Leu-aldehyde)
HUVEC inflammation response as shown by upregulation of IL-8, IL-6, and MCP-1 [1]: clearly diminished
IL-8 expression [1]: not affected within the concentration range studied

S=C(S)N1CCCC1 [PDTC]
THP-1 cellular inflammation response as shown by upregulation of IL-8 [2]: clearly diminished
cytokine expression [2]: Concentration-dependent decreases

Oc1ccc(-c2nc(-c3ccncc3)c(-c3ccc(F)cc3)[nH]2)cc1 [SB202190]
HUVEC inflammation response as shown by upregulation of IL-8, IL-6, and MCP-1 [1]: clearly diminished
IL-8 expression [1]: reduced at similar concentrations
THP-1 cellular inflammation response as shown by upregulation of IL-8 [2]: clearly diminished
cytokine expression [2]: Concentration-dependent decreases

— US11839873B2, “Valveless fluidic switching flowchip and uses thereof” (Protein Fluidics, Inc., priority 2018, dated 2023)
